Tested on: neural progenitor cells (NPCs)
Experiment: Neurogenesis from NPCs co-cultured with microglia pre-activated by aggregated Aβ and cytokines
Format: cell-based, mouse
Settings: 10 days; Aβ 5 μM 48 h, cytokines 10 ng/ml
Experimental: (xx) Reagents. Recombinant mouse IFN-γ and IL-4 (both containing endotoxin at a concentration below 0.1 ng/μg cytokine) were obtained from R&D Systems (Minneapolis, Minn.). β-amyloid peptides [amyloid protein fragment 1-40 and 1-42 (Aβ1-40/1-42)] were purchased from Sigma-Aldrich, St. Louis, Mo. The Aβ peptides were dissolved in endotoxin-free water, and Aβ aggregates were formed by incubation of Aβ, as described (Ishii et al., 2000). (xxv) Neural progenitor cell culture. Coronal sections (2 mm thick) of tissue containing the subventricular zone of the lateral ventricle were obtained from the brains of adult C57B1/6J mice. […] After centrifugation at 110×g for 15 min at room temperature, the tissue was mechanically dissociated by pipette trituration. Cells obtained from single-cell suspensions were plated (3500 cells/cm^2) in 75-cm^2 Falcon tissue-culture flasks (BD Biosciences, San Diego, Calif.), in NPC-culturing medium [Dulbecco's modified Eagles's medium (DMEM)/F12 medium (Gibco/Invitrogen, Carlsbad, Calif.) containing 2 mM L-glutamine, 0.6% glucose, 9.6 μg/ml putrescine, 6.3 ng/ml progesterone, 5.2 ng/ml sodium selenite, 0.02 mg/ml insulin, 0.1 mg/ml transferrin, 2 μg/ml heparin (all from Sigma-Aldrich, Rehovot, Israel), fibroblast growth factor-2 (human recombinant, 20 ng/ml), and epidermal growth factor (human recombinant, 20 ng/ml; both from Peprotech, Rocky Hill, N.J.)]. Spheres were passaged every 4-6 days and replated as single cells. Green fluorescent protein (GFP)-expressing NPCs were obtained as previously described (Pluchino et al., 2003). (xxvi) Primary microglial culture. Brains from neonatal (P0-P1) C57B1/6J mice were stripped of their meninges and minced with scissors under a dissecting microscope (Zeiss, Stemi DV4, Germany) in Leibovitz-15 medium (Biological Industries, Kibbutz Beit Ha-Emek, Israel). […] The cell suspension was washed in culture medium for glial cells [DMEM supplemented with 10% fetal calf serum (FCS; Sigma-Aldrich, Rehovot), L-glutamine (1 mM), sodium pyruvate (1 mM), penicillin (100 U/ml), and streptomycin ([…])] and cultured at 37° C./5% CO2 in 75-cm^2 Falcon tissue-culture flasks (BD Biosciences) coated with poly-D-lysine (PDL) (10 mg/ml; Sigma-Aldrich, Rehovot) in borate buffer (2.37 g borax and 1.55 g boric acid dissolved in 500 ml sterile water, pH 8.4) for 1 h, then rinsed thoroughly with sterile, glass-distilled water. Half of the medium was changed after 6 h in culture and every 2nd day thereafter, starting on day 2, for a total culture time of 10-14 days. […]

Substance: IFN-γ: recombinant interferon-γ
- neurogenesis (GFP+/βIIIT+ cells) from NPCs co-cultured with treated microglia: increase in numbers of GFP^+/βIIIT^+ cells was dramatic

Source: patent US20090191173A1, “Induction Of Neurogenesis And Stem Cell Therapy In Combination With Copolymer 1” (priority 2004, published 2009)
